Measurements published in patent publication US7915284B2, “2-aryl-6-phenylimidazo[1,2-a]pyridine derivatives, preparation thereof and therapeutic use thereof” (Sanofi-Aventis, priority 2006, dated 2011).

target: T1, mouse Nurr1 receptor (Mus musculus, UniProt Q06219); assay: In vitro activity on N2A cells (NBRE-luciferase reporter); assay type: cell-based; settings: N2A cell line endogenously expressing mouse Nurr1, stably transfected with 8NBRE-luciferase; 24 hours incubation
T1 construct: endogenously expressing the mouse Nurr1 receptor; host or cells: Neuro-2A (N2A) mouse neuroblastoma cells stably transfected with 8NBRE-luciferase
T1 sequence (Q06219 whole entry): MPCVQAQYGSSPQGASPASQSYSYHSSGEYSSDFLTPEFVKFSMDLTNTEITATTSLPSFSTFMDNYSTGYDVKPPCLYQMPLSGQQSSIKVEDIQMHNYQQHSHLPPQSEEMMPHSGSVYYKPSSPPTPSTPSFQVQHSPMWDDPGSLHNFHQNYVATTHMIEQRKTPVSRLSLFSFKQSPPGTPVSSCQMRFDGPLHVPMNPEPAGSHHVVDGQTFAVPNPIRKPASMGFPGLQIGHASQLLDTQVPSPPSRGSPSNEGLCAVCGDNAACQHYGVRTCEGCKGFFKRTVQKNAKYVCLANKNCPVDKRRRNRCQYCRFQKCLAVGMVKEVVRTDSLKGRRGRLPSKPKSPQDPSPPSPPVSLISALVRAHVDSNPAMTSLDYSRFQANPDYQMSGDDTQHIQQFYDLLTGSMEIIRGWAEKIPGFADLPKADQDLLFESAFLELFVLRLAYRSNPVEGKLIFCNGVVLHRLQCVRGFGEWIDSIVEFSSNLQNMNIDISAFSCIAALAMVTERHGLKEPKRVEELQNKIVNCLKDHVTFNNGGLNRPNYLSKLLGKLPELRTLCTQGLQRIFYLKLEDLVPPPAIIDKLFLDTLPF
Procedure: Evaluation of the In Vitro Activity on N2A Cells
Assays consisted in measuring the in vitro activity of the compounds of the invention on a cell line (N2A) endogenously expressing the mouse Nurr1 receptor and stably transfected with the NOT binding response element (NBRE) coupled to the luciferase reporter gene. The EC50 values are between 0.01 and 1000 nM. The assays were carried out according to the procedure described below.
The Neuro-2A cell line comes from a standard commercial source (ATCC). The Neuro-2A clone was obtained from a spontaneous tumour originating from an A albino mouse strain, by R. J Klebe et col. This Neuro-2A line is subsequently stably transfected with 8NBRE-luciferase. The N2A-8NBRE cells are cultured until confluence in 75 cm^2 culture flasks containing DMEM supplemented with 10% of foetal calf serum, 4.5 g/l of glucose and 0.4 mg/ml of geneticin. After a week of culture, the cells are recovered with 0.25% trypsin for 30 seconds and then resuspended in DMEM without phenol red, containing 4.5 g/l of glucose and 10% of Hyclone delipidized serum, and deposited into transparent-bottom 96-well white plates. The cells are deposited at a rate of 60 000 per well in 75 μl for 24 hours before the addition of the products. The products are applied in 25 μl and incubated for a further 24 hours. On the day of the measurement, an equivalent volume (100 μl) of Steadylite are added to each well and then left for a period of 30 minutes in order to obtain complete cell lysis and maximum signal production. The plates are subsequently measured in a luminescence counter for microplates after having been sealed with an adhesive film. The products are prepared in the form of a stock solution at 10^−2M and then diluted in 100% of DMSO. Each product concentration is prediluted in culture medium before incubation with the cells, thus containing 0.625% final concentration of DMSO.

| EC50 | Structure (SMILES) |
| --- | --- |
| 3.6 nM | COCCOCc1cccc(-c2ccc3nc(-c4ccc5ccccc5c4)cn3c2)c1 [Compound 17, 6-[3-(2-Methoxyethoxymethyl)phenyl]-2-(naphthalen-2-yl)imidazo[1,2-a]pyridine] |
| 14 nM | Cc1ccc(-c2cn3cc(-c4cccc(COc5ccc(Cl)cc5)c4)ccc3n2)cc1 [Compound 31, 6-[3-(4-Chlorophenoxymethyl)phenyl]-2-p-tolylimidazo[1,2-a]pyridine] |
| 0.7 nM | CC(C)(O)c1cccc(-c2ccc3nc(-c4ccc(Cl)cc4)cn3c2)c1 [Compound 39, 2-{3-[2-(4-Chlorophenyl)imidazo[1,2-a]pyridin-6-yl]phenyl}propan-2-ol] |
| 0.7 nM | OCc1ccccc1-c1ccc2nc(-c3ccc(Cl)cc3)cn2c1 [Compound 40, {2-[2-(4-Chlorophenyl)imidazo[1,2-a]pyridin-6-yl]phenyl}methanol] |
